Like-named read-outs stand apart in the source and are kept apart here. *1 amine or outer side, *2 acyl side, *3 side chain or, on linkers, in order; H or OH if unused. Where a SMILES comes first, the peptide text is derived from it. Side-chain parts run from the residue outwards. [ ]: non-standard residue; d: D form. The star is where a group is joined. γGlu = O=C(O)[C@H](CCC(=O)[*:2])N[*:1]; C14 diacid = O=C(O)CCCCCCCCCCCCC(=O)*; αMeY = C[C@](N)(Cc1ccc(O)cc1)C(=O)O; αMeF = C[C@](N)(Cc1ccccc1)C(=O)O; αMeL = CC(C)C[C@](C)(N)C(=O)O; Orn = NCCC[C@H](N)C(=O)O; AEEA = NCCOCCOCC(=O)O; Aib = CC(C)(N)C(=O)O
Experiments:
Assay type in all cases: cell-based
hGCGR = target: T1, hGCGR (Homo sapiens, UniProt P47871); experiment: Functional cAMP formation (HTRF) in HEK-293 clonal cells expressing hGCGR, 0.1% bovine casein, without or with 1.0% human serum albumin; conditions: cAMP, read-out: hGCGR EC50, nM (SEM, n)
T1 construct: expressed in transfected cells
How it was run: (§1)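 Cells were stimulated with peptide for 30 min at 37° C, then lysed in buffer carrying cAMP-d2 and anti-cAMP Eu3+-cryptate for a competitive HTRF read after at least 60 min at room temperature. The 665/620 nm ratio was converted to nM cAMP against a standard curve.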

hGIPR = target: T2, hGIPR (Homo sapiens, UniProt P48546); experiment: Functional cAMP formation (HTRF) in HEK-293 clonal cells expressing hGIPR, 0.1% bovine casein, without or with 1.0% human serum albumin; conditions: for Emax: read-out: hGIPR Emax, % ± SEM; for EC50: cAMP, read-out: hGIPR EC50, nM (SEM, n)
T2 construct: expressed in transfected cells
T2 sequence (P48546 22-466): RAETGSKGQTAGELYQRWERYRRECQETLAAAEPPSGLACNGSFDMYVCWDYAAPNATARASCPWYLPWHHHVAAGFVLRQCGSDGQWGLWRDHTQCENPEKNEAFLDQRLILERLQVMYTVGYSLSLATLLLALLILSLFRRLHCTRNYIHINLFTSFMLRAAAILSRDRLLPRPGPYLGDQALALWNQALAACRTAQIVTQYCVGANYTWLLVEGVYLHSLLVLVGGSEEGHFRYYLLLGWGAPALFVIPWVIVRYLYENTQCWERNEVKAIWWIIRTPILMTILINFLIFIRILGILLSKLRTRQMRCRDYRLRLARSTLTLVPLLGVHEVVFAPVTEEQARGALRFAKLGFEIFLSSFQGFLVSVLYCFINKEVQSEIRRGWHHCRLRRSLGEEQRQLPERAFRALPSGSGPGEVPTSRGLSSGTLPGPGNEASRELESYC
How it was run: as §1

hGLP-1R = hGLP-1R (Homo sapiens, UniProt P43220); experiment: Functional cAMP formation (HTRF) in HEK-293 clonal cells expressing hGLP-1R, 0.1% bovine casein, without or with 1.0% human serum albumin; design: expressed in transfected cells; conditions: for Emax: 0.1% bovine casein, arithmetic mean, read-out: hGLP-1R Emax, % ± SEM; for EC50: cAMP, read-out: hGLP-1R EC50, nM (SEM, n)
How it was run: as §1

[1] = incubated at 37° C., 0.1% bovine casein (no human serum albumin), geometric mean
[2] = HEK293, percent of maximal response to GIP(1-42)NH2, 37° C., 0.1% bovine casein, arithmetic mean
[3] = HEK293, percent of maximal response to GLP-1(7-36)NH2, 37° C.
[4] = 37° C., 0.1% bovine casein (no human serum albumin), geometric mean
[5] = HEK293, cAMP, 37° C., percent of maximal response to GLP-1(7-36)NH2
[6] = 37° C., 0.1% bovine casein and 1.0% human serum albumin, geometric mean (SEM, n)

hGLP-1R, sequence (P43220 24-463): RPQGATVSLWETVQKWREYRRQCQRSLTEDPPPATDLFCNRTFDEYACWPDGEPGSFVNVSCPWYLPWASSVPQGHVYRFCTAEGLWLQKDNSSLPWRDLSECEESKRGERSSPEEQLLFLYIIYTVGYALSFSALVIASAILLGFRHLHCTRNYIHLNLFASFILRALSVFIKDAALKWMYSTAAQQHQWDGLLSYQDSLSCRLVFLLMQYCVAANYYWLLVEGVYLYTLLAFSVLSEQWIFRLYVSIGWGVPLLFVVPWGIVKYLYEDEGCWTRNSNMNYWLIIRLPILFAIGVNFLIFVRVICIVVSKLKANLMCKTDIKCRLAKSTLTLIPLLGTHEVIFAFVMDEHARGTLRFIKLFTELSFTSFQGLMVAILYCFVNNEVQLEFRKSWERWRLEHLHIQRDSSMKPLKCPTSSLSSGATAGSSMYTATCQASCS
T1 sequence (P47871 26-477): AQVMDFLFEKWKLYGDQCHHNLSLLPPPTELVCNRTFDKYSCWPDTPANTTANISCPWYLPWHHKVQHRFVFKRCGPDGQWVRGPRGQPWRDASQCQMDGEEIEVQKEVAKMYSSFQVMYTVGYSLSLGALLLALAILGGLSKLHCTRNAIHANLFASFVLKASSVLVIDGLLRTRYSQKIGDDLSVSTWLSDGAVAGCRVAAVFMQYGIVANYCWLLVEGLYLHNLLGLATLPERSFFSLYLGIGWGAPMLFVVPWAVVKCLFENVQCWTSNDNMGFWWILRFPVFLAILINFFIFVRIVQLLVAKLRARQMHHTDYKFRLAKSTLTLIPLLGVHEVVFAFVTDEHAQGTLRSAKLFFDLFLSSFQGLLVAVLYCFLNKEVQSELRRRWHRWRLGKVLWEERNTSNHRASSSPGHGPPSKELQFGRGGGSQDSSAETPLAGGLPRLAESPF

## CC[C@H](C)[C@H](NC(=O)[C@H](CC(C)C)NC(=O)[C@](C)(Cc1ccc(O)cc1)NC(=O)[C@@H](CCC(=O)O)NC(=O)[C@@H](NC(=O)[C@H](Cc1ccccc1)NC(=O)[C@H](CCC(=O)O)NC(=O)C(C)(C)NC(=O)[C@H](CCC(N)=O)NC(=O)[C@H](C)NC(=O)[C@H](CCCCNC(=O)COCCOCCNC(=O)COCCOCCNC(=O)CC[C@H](NC(=O)CCCCCCCCCCCCC(=O)O)C(=O)O)NC(=O)[C@H](CCCN)NC(=O)[C@H](CC(=O)O)NC(=O)[C@H](CC(C)C)NC(=O)[C@](C)(CC(C)C)NC(=O)[C@@H](NC(=O)[C@H](CO)NC(=O)[C@H](Cc1cccs1)NC(=O)[C@H](CC(=O)O)NC(=O)[C@H](CO)NC(=O)[C@@H](NC(=O)[C@](C)(Cc1ccccc1F)NC(=O)[C@@H](NC(=O)CNC(=O)[C@H](CCC(=O)O)NC(=O)C(C)(C)NC(=O)[C@@H](N)Cc1ccc(O)cc1)[C@@H](C)O)[C@@H](C)O)[C@@H](C)CC)[C@@H](C)CC)C(=O)N[C@@H](CCC(=O)O)C(=O)NCC(=O)NCC(=O)N[C@@H](CCCCNC(=O)COCCOCCNC(=O)COCCOCCNC(=O)CC[C@H](NC(=O)CCCCCCCCCCCCC(=O)O)C(=O)O)C(=O)N[C@@H](CO)C(=O)N[C@@H](CO)C(=O)NCC(=O)N[C@@H](C)C(=O)N1CCC[C@H]1C(=O)N1CCC[C@H]1C(=O)N1CCC[C@H]1C(=O)N[C@@H](CO)C(N)=O [Example 145]
hGCGR; [1]
  EC50: > 9950 nM
hGIPR; [2]
  Emax: 74.8%
hGIPR; [1]
  EC50: 0.0286 nM
hGLP-1R; [3]
  Emax: 95.1%
hGLP-1R; [1]
  EC50: 0.555 nM

## CC[C@H](C)[C@H](NC(=O)[C@H](CC(C)C)NC(=O)[C@](C)(Cc1ccc(O)cc1)NC(=O)[C@@H](CCC(=O)O)NC(=O)[C@@H](NC(=O)[C@H](Cc1ccccc1)NC(=O)[C@H](CCC(=O)O)NC(=O)C(C)(C)NC(=O)[C@H](CCC(N)=O)NC(=O)[C@H](C)NC(=O)[C@H](CCCCNC(=O)COCCOCCNC(=O)CC[C@H](NC(=O)CCCCCCCCCCCCC(=O)O)C(=O)O)NC(=O)[C@H](CCCN)NC(=O)[C@H](CC(=O)O)NC(=O)[C@H](CC(C)C)NC(=O)[C@](C)(CC(C)C)NC(=O)[C@@H](NC(=O)C(C)(C)NC(=O)[C@H](Cc1ccc(O)cc1)NC(=O)[C@H](CC(=O)O)NC(=O)[C@H](CO)NC(=O)[C@@H](NC(=O)[C@](C)(Cc1ccccc1F)NC(=O)[C@@H](NC(=O)CNC(=O)[C@H](CCC(=O)O)NC(=O)C(C)(C)NC(=O)[C@@H](N)Cc1ccc(O)cc1)[C@@H](C)O)[C@@H](C)O)[C@@H](C)CC)[C@@H](C)CC)C(=O)N[C@@H](CCCCNC(=O)COCCOCCNC(=O)CC[C@H](NC(=O)CCCCCCCCCCCCC(=O)O)C(=O)O)C(=O)NCC(=O)NCC(=O)N1CCC[C@H]1C(=O)N[C@@H](CO)C(=O)N[C@@H](CO)C(=O)NCC(=O)N[C@@H](C)C(=O)N1CCC[C@H]1C(=O)N1CCC[C@H]1C(=O)N1CCC[C@H]1C(=O)N[C@@H](CO)C(N)=O [Example 367]
hGCGR; [4]
  EC50: > 9950 nM
hGIPR; HEK293, cAMP, 37° C., 0.1% bovine casein, percent of maximal response to GIP(1-42)NH2, arithmetic mean
  Emax: 112%
hGIPR; [4]
  EC50: 0.019 nM
hGLP-1R; [5]
  Emax: 93.9%
hGLP-1R; [4]
  EC50: 0.366 nM

## CCCCCCCCCCCC(=O)N[C@@H](CCC(=O)NCCOCCOCC(=O)NCCOCCOCC(=O)NCCCC[C@H](NC(=O)[C@H](CCCN)NC(=O)[C@H](CC(=O)O)NC(=O)[C@H](CC(C)C)NC(=O)[C@](C)(CC(C)C)NC(=O)[C@@H](NC(=O)[C@H](CO)NC(=O)[C@H](CCc1ccc(O)cc1)NC(=O)[C@H](CC(=O)O)NC(=O)[C@H](CO)NC(=O)[C@@H](NC(=O)[C@](C)(Cc1ccccc1F)NC(=O)[C@@H](NC(=O)CNC(=O)[C@H](CCC(=O)O)NC(=O)C(C)(C)NC(=O)[C@@H](N)Cc1ccc(O)cc1)[C@@H](C)O)[C@@H](C)O)[C@@H](C)CC)C(=O)N[C@@H](C)C(=O)N[C@@H](CCC(N)=O)C(=O)NC(C)(C)C(=O)N[C@@H](CCC(=O)O)C(=O)N[C@@H](Cc1ccccc1)C(=O)N[C@H](C(=O)N[C@H](CCC(=O)O)C(=O)N[C@@](C)(Cc1ccc(O)cc1)C(=O)N[C@@H](CC(C)C)C(=O)N[C@H](C(=O)N[C@@H](CCCCNC(=O)COCCOCCNC(=O)COCCOCCNC(=O)CC[C@H](NC(=O)CCCCCCCCCCC)C(=O)O)C(=O)NCC(=O)NCC(=O)N1CCC[C@H]1C(=O)N[C@@H](CO)C(=O)N[C@@H](CO)C(=O)NCC(=O)N[C@@H](C)C(=O)N1CCC[C@H]1C(=O)N1CCC[C@H]1C(=O)N1CCC[C@H]1C(=O)N[C@@H](CO)C(N)=O)[C@@H](C)CC)[C@@H](C)CC)C(=O)O [Example 335]
hGCGR; [4]
  EC50: > 9950 nM
hGCGR; [6]
  EC50: > 9950 nM
hGIPR; HEK293, cAMP, 37° C., 0.1% bovine casein and 1.0% human serum albumin, percent of maximal response to GIP(1-42)NH2
  Emax: 85.2%
hGIPR; [6]
  EC50: 1.04 nM
hGLP-1R; [5]
  Emax: 113%
hGLP-1R; [4]
  EC50: 0.175 nM
hGLP-1R; [6]
  EC50: 12.3 nM

## CC[C@H](C)[C@H](NC(=O)[C@H](CC(C)C)NC(=O)[C@](C)(Cc1ccc(O)cc1)NC(=O)[C@@H](CCC(=O)O)NC(=O)[C@@H](NC(=O)[C@H](Cc1ccccc1)NC(=O)[C@H](CCC(=O)O)NC(=O)C(C)(C)NC(=O)[C@H](CCC(N)=O)NC(=O)[C@H](C)NC(=O)[C@H](CCCCNC(=O)COCCOCCNC(=O)COCCOCCNC(=O)CC[C@H](NC(=O)CCCCCCCCCCCCC(=O)O)C(=O)O)NC(=O)[C@H](CCCN)NC(=O)[C@H](CC(=O)O)NC(=O)[C@H](CC(C)C)NC(=O)[C@](C)(CC(C)C)NC(=O)[C@@H](NC(=O)[C@H](CO)NC(=O)[C@@H](NC(=O)[C@H](CC(=O)O)NC(=O)[C@H](CO)NC(=O)[C@@H](NC(=O)[C@](C)(Cc1ccccc1)NC(=O)[C@@H](NC(=O)CNC(=O)[C@H](CCC(=O)O)NC(=O)C(C)(C)NC(=O)[C@@H](N)Cc1ccc(O)cc1)[C@@H](C)O)[C@@H](C)O)C(C)C)[C@@H](C)CC)[C@@H](C)CC)C(=O)N[C@@H](CCC(=O)O)C(=O)NCC(=O)NCC(=O)N[C@@H](CCCCNC(=O)COCCOCCNC(=O)COCCOCCNC(=O)CC[C@H](NC(=O)CCCCCCCCCCCCC(=O)O)C(=O)O)C(=O)N[C@@H](CO)C(=O)N[C@@H](CO)C(=O)NCC(=O)N[C@@H](C)C(=O)N1CCC[C@H]1C(=O)N1CCC[C@H]1C(=O)N1CCC[C@H]1C(=O)N[C@@H](CO)C(N)=O [Example 179] (H-Y[Aib]EGT[αMeF]TSDVSI[αMeL]LD[Orn]K([AEEA-AEEA-γGlu-C14 diacid])AQ[Aib]EFI[dE][αMeY]LIEGGK([AEEA-AEEA-γGlu-C14 diacid])SSGAPPPS-NH2)
hGCGR; [1]
  EC50: > 9950 nM
hGIPR; [2]
  Emax: 91%
hGLP-1R; [3]
  Emax: 99%

From US20230265151A1, “GIP/GLP1 CO-AGONIST COMPOUNDS” (priority 2020, published 2023)
